# Measurements published in ChEMBL document CHEMBL1201862, “PubChem BioAssay data set” (2004).
#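 Dose response: 5 concentrations. Exposure: 48 h. Format: 96-well plates. Endpoint: linear interpolation; highest concentration if not reached. GI50 is the concentration that inhibits growth by half.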 Calls of active or inactive are those of the source. Rule as the data show it: active = GI50 up to about 1.1 µM and inactive = higher.
# Legend:
# Assay in all cases: growth of human tumour cells (NCI), 48 h
# CAKI-1 = tested on: CAKI-1
# HCC 2998 = tested on: HCC 2998
# HCT-116 = tested on: HCT-116
# KM12 = tested on: KM12
# MOLT-4 = tested on: MOLT-4
# Malme-3M = tested on: Malme-3M
# NCI/ADR-RES = tested on: NCI/ADR-RES
# OVCAR-5 = tested on: OVCAR-5
# RPMI-8226 = tested on: RPMI-8226
# SF-539 = tested on: SF-539
# SK-MEL-5 = tested on: SK-MEL-5
# SN12C = tested on: SN12C
# SNB-19 = tested on: SNB-19
# U-251 = tested on: U-251
# UACC-257 = tested on: UACC-257
# UACC-62 = tested on: UACC-62
# Hs-578T = tested on: Hs-578T
# PC-3 = tested on: PC-3
# SR = tested on: SR
SMILES,GI50 (CAKI-1),GI50 (HCC 2998),GI50 (HCT-116),GI50 (KM12),GI50 (MOLT-4),GI50 (Malme-3M),GI50 (NCI/ADR-RES),GI50 (OVCAR-5),GI50 (RPMI-8226),GI50 (SF-539),GI50 (SK-MEL-5),GI50 (SN12C),GI50 (SNB-19),GI50 (U-251),GI50 (UACC-257),GI50 (UACC-62),GI50 (Hs-578T),GI50 (PC-3),GI50 (SR)
CC1(CO)C(O)CCC2(C)C1C(O)CC1CC3CC12CCC3(O)CO (stereo not given),> 225 µM (inactive),> 225 µM (inactive),> 217 µM (inactive),> 225 µM (inactive),> 96.6 µM (inactive),> 225 µM (inactive),> 225 µM (inactive),> 225 µM (inactive),> 158 µM (inactive),> 225 µM (inactive),> 225 µM (inactive),> 225 µM (inactive),> 225 µM (inactive),> 225 µM (inactive),> 225 µM (inactive),> 225 µM (inactive),,,
CC1=CC2=C(C=O)C(=O)[C@](C)(O)[C@@H](O)C2=CO1,33.5 µM (inactive),19.1 µM (inactive),22.3 µM (inactive),33.3 µM (inactive),15.6 µM (inactive),26.4 µM (inactive),> 53.8 µM (inactive),> 50.8 µM (inactive),15.9 µM (inactive),29.4 µM (inactive),24.6 µM (inactive),28.6 µM (inactive),0.982 µM (active),25.2 µM (inactive),33.2 µM (inactive),23.5 µM (inactive),,,
N#Cc1c(N2CCCC2)nsc1Nc1ccccc1,> 10 µM (inactive),> 100 µM (inactive),> 100 µM (inactive),> 100 µM (inactive),> 100 µM (inactive),> 100 µM (inactive),> 100 µM (inactive),> 100 µM (inactive),> 100 µM (inactive),> 100 µM (inactive),> 100 µM (inactive),> 100 µM (inactive),> 100 µM (inactive),,> 100 µM (inactive),,> 100 µM (inactive),> 100 µM (inactive),> 100 µM (inactive)
CCCCCNC(=O)CCCCCCCCCCCNC(=O)CCCCCCCCCCN1C=CC(=CC=C2C=CC(=O)C=C2)C=C1,> 100 µM (inactive),32.7 µM (inactive),> 100 µM (inactive),37.4 µM (inactive),29 µM (inactive),34.9 µM (inactive),,> 100 µM (inactive),8.99 µM (inactive),30.3 µM (inactive),35.2 µM (inactive),39.4 µM (inactive),34.8 µM (inactive),32.1 µM (inactive),16.6 µM (inactive),48.4 µM (inactive),,,6.64 µM (inactive)
COC1(C(C)(C)C)C=C(C(C)(C)C)P(=O)(O)O1 (stereo not given),> 100 µM (inactive),15.7 µM (inactive),> 100 µM (inactive),> 100 µM (inactive),,> 100 µM (inactive),> 100 µM (inactive),> 100 µM (inactive),> 100 µM (inactive),> 100 µM (inactive),> 100 µM (inactive),> 100 µM (inactive),> 100 µM (inactive),> 100 µM (inactive),> 100 µM (inactive),> 100 µM (inactive),> 100 µM (inactive),> 100 µM (inactive),> 100 µM (inactive)
CC1(C)CC2C(C1=O)C1(C)CCCC2(C)C1=O (stereo not given),> 100 µM (inactive),> 100 µM (inactive),> 100 µM (inactive),> 100 µM (inactive),> 100 µM (inactive),> 100 µM (inactive),> 100 µM (inactive),> 100 µM (inactive),> 100 µM (inactive),> 100 µM (inactive),> 100 µM (inactive),> 100 µM (inactive),,> 100 µM (inactive),> 100 µM (inactive),> 100 µM (inactive),> 100 µM (inactive),> 100 µM (inactive),> 100 µM (inactive)
O=[N+]([O-])c1ccc(CNC2=NNS(=O)(=O)c3ccccc32)cc1,26.6 µM (inactive),> 100 µM (inactive),> 100 µM (inactive),> 100 µM (inactive),22.3 µM (inactive),> 100 µM (inactive),,> 100 µM (inactive),34.5 µM (inactive),> 100 µM (inactive),> 100 µM (inactive),> 100 µM (inactive),> 100 µM (inactive),72.1 µM (inactive),> 100 µM (inactive),34.6 µM (inactive),,,31.6 µM (inactive)
O=C1C(c2ccccc2)=C(O)c2cccc3cccc1c23,> 100 µM (inactive),> 100 µM (inactive),> 100 µM (inactive),> 100 µM (inactive),> 100 µM (inactive),> 100 µM (inactive),,> 100 µM (inactive),> 100 µM (inactive),> 100 µM (inactive),> 100 µM (inactive),> 100 µM (inactive),> 100 µM (inactive),> 100 µM (inactive),> 100 µM (inactive),> 100 µM (inactive),,,> 100 µM (inactive)
O=C(NC1C(=O)NNC1c1ccccc1Cl)c1ccccc1 (stereo not given),> 100 µM (inactive),> 100 µM (inactive),> 100 µM (inactive),> 100 µM (inactive),64.4 µM (inactive),> 100 µM (inactive),,> 100 µM (inactive),82.2 µM (inactive),> 100 µM (inactive),> 100 µM (inactive),> 100 µM (inactive),> 100 µM (inactive),> 100 µM (inactive),> 100 µM (inactive),> 100 µM (inactive),,,42.2 µM (inactive)
COc1ccc2c3c([nH]c2c1)CCN(Cc1ccccc1)C3,,19.1 µM (inactive),24 µM (inactive),22 µM (inactive),24.8 µM (inactive),18.7 µM (inactive),31.5 µM (inactive),21 µM (inactive),22.8 µM (inactive),16.1 µM (inactive),17 µM (inactive),34 µM (inactive),21.4 µM (inactive),22.5 µM (inactive),19.6 µM (inactive),31.8 µM (inactive),24.6 µM (inactive),,17.4 µM (inactive)
[N-]=[N+]=Nc1c(Cl)c(Cl)nc2ccccc12,21.2 µM (inactive),> 100 µM (inactive),> 100 µM (inactive),> 100 µM (inactive),32.7 µM (inactive),> 100 µM (inactive),> 100 µM (inactive),> 100 µM (inactive),62.8 µM (inactive),> 100 µM (inactive),> 100 µM (inactive),76 µM (inactive),> 100 µM (inactive),,> 100 µM (inactive),> 100 µM (inactive),61.8 µM (inactive),> 100 µM (inactive),> 100 µM (inactive)
O/N=C1/CCCC/C1=C/C=C/c1ccccc1,35.7 µM (inactive),22.1 µM (inactive),15.7 µM (inactive),20.1 µM (inactive),19 µM (inactive),21.3 µM (inactive),,26.7 µM (inactive),18.6 µM (inactive),20.2 µM (inactive),16.5 µM (inactive),17.8 µM (inactive),48 µM (inactive),16.7 µM (inactive),24.9 µM (inactive),18.6 µM (inactive),,,5.71 µM (inactive)
